These results are taken from ChEMBL document CHEMBL4219211, “Design and discovery of thioether and nicotinamide containing sorafenib analogues as multikinase inhibitors targeting B-Raf, B-RafV600E and VEGFR-2” (Bioorg Med Chem, 2018).

One assay concerns HCT-116. Description: cells. As to conditions: Homo sapiens, HCT-116, 48 h.
The target of assay [1] is Vascular endothelial growth factor receptor 2 (Homo sapiens, UniProt P35968). Description: Inhibition of VEGFR2 (unknown origin) using FAM-labelled peptide as substrate pretreated for 10 mins followed by substrate addition measured after 30 mins by caliper mobility shift assay.
For the next assay, the system named is B16-BL6. Description: cells. Particulars: Mus musculus, B16-BL6, 48 h.
The target of assay [2] is Serine/threonine-protein kinase B-raf (Homo sapiens, UniProt P15056, V600E). Description: Inhibition of B-Raf V600E mutant (unknown origin) using MEK1 as substrate measured after 2 hrs by ELISA.
The target in assay [3] is Serine/threonine-protein kinase B-raf (Homo sapiens, UniProt P15056). Description: Inhibition of B-Raf (unknown origin) using MEK1 as substrate measured after 2 hrs by ELISA. (In general: An ELISA detects its analyte on a solid surface through an enzyme-linked reagent.)
Assay [4] has as its system HUVEC. Description: Antiangiogenic activity against HUVEC assessed as reduction in tube formation at 0.1 uM after 6 hrs by matrigel based phase contrast microscopic analysis. In kind it is functional, Homo sapiens. Details: scale not given: the % may be the effect or the level left.
The test system of assay [5] is HUVEC. Description: Antiangiogenic activity against HUVEC assessed as reduction in tube formation at 0.05 uM after 6 hrs by matrigel based phase contrast microscopic analysis. In kind it is functional.
Assay [6] addresses Mast/stem cell growth factor receptor Kit (Homo sapiens, UniProt P10721). Description: Inhibition of c-KIT (unknown origin).
Assay [7] deals with Epidermal growth factor receptor (Homo sapiens, UniProt P00533). Description: Inhibition of EGFR (unknown origin).
For assay [8], the target named is T1, Receptor-type tyrosine-protein kinase FLT3 (Homo sapiens, UniProt P36888).
T1 sequence (P36888 whole entry): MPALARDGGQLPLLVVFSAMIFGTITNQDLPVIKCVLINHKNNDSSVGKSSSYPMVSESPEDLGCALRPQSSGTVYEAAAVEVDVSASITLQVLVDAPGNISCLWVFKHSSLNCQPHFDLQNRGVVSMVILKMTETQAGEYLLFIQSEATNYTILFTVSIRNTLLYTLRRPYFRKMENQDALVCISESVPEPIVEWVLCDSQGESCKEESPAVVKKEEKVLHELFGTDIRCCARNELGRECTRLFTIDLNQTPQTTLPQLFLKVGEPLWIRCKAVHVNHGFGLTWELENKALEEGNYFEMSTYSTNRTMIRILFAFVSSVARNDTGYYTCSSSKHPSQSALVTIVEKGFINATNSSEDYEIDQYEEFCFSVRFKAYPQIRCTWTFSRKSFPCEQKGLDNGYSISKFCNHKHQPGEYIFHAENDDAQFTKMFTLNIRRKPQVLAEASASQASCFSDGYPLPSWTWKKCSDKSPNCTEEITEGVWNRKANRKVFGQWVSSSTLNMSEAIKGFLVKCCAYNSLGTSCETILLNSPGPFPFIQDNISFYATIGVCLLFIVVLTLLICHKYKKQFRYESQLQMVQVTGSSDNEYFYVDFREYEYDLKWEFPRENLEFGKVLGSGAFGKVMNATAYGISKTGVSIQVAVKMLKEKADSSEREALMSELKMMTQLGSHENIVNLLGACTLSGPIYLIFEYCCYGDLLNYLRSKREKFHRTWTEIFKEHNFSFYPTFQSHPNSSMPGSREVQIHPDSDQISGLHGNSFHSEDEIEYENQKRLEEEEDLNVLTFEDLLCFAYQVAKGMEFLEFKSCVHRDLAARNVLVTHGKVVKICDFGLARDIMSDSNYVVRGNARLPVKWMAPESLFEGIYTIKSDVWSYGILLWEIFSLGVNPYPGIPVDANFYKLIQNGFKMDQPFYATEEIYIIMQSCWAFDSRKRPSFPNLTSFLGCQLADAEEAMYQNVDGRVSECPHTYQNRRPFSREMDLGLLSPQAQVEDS
Description: Inhibition of FLT3 (unknown origin).

Structures are written as SMILES. The source made the active and inactive calls. No cut-off for these calls is given here.

Sequence of Serine/threonine-protein kinase B-raf (Homo sapiens, UniProt P15056, V600E) (P15056 2-766 V600E limits assumed): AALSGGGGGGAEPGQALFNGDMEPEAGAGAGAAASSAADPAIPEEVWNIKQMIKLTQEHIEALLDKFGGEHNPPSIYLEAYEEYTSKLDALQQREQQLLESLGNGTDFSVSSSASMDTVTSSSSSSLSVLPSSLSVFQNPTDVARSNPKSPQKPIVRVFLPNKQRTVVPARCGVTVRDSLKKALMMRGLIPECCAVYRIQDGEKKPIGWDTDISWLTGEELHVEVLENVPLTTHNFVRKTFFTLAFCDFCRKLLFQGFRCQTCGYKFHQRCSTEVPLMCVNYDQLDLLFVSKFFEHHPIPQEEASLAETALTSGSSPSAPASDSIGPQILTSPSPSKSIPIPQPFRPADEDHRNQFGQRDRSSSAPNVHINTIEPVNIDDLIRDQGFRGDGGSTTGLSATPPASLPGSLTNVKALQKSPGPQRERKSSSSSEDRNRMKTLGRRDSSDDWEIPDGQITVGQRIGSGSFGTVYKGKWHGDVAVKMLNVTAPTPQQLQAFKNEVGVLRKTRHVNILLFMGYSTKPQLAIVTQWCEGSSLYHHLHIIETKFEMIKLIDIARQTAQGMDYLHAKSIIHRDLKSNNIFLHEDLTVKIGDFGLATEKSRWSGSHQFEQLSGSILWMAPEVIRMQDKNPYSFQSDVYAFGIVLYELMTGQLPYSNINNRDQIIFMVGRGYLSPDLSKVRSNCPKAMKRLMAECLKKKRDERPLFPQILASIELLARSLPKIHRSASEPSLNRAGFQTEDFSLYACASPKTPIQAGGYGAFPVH
Sequence of Vascular endothelial growth factor receptor 2 (P35968 whole entry): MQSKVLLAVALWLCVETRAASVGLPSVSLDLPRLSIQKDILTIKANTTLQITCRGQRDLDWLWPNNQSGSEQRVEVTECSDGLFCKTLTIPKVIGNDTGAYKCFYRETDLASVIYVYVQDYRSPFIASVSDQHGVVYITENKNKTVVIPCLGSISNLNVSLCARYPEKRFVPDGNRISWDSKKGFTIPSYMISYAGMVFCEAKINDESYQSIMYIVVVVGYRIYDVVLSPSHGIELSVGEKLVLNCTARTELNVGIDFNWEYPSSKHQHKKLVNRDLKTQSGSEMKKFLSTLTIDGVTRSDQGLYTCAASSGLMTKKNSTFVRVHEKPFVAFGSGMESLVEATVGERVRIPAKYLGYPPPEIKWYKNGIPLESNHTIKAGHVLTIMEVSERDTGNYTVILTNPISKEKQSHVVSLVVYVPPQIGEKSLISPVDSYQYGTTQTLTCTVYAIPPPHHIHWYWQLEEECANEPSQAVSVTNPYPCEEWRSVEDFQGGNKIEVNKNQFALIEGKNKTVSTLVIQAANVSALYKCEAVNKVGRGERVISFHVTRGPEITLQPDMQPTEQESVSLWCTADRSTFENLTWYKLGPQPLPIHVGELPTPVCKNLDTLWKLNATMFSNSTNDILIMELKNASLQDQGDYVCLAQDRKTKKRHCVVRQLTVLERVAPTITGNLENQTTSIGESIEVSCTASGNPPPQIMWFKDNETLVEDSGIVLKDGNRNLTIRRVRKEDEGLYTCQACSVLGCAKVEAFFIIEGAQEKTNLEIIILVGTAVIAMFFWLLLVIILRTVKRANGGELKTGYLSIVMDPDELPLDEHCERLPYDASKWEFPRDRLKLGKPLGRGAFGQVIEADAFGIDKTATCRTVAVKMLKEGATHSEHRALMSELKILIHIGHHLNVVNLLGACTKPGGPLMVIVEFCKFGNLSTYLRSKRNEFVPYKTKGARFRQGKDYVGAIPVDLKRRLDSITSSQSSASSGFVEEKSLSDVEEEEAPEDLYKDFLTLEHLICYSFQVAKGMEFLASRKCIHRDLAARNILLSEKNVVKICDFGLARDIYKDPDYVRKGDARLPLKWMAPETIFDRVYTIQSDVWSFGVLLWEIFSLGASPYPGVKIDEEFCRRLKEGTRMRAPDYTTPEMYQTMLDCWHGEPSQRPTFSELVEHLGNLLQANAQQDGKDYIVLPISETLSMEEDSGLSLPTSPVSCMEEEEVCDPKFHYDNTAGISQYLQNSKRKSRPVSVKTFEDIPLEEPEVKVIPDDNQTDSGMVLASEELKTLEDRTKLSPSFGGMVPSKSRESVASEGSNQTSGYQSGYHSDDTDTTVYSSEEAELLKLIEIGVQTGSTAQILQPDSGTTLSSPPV
Sequence of Epidermal growth factor receptor (P00533 whole entry): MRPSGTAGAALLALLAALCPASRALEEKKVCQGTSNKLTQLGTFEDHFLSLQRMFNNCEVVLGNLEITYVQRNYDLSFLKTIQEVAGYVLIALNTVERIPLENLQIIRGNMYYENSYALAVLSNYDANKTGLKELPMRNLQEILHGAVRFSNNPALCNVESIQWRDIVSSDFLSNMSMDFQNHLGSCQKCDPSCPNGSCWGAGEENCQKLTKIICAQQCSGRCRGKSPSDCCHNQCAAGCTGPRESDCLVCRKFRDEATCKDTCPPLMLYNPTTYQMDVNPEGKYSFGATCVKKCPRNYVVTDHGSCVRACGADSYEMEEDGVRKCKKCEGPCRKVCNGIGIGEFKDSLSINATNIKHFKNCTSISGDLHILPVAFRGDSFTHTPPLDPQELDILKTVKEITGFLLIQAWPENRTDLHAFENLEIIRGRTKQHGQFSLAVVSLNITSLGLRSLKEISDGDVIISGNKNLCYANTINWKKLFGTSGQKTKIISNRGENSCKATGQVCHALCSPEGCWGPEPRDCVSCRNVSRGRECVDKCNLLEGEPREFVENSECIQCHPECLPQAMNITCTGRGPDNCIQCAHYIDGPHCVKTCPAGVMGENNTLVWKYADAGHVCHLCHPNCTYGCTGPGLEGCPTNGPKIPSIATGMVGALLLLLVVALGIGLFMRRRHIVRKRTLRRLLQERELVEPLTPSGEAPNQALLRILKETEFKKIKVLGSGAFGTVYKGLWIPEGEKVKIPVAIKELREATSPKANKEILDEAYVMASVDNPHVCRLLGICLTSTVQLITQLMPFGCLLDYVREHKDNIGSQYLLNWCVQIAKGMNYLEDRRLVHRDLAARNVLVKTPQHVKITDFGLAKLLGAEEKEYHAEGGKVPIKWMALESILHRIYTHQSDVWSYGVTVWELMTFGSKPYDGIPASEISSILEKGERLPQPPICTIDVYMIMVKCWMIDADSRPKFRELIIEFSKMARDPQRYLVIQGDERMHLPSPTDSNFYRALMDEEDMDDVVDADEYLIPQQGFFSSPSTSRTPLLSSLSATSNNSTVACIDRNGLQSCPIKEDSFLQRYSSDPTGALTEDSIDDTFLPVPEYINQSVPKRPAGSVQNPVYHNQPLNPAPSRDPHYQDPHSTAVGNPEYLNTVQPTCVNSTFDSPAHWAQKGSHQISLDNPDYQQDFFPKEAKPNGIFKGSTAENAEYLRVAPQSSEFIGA
Sequence of Serine/threonine-protein kinase B-raf (Homo sapiens, UniProt P15056) (P15056 whole entry): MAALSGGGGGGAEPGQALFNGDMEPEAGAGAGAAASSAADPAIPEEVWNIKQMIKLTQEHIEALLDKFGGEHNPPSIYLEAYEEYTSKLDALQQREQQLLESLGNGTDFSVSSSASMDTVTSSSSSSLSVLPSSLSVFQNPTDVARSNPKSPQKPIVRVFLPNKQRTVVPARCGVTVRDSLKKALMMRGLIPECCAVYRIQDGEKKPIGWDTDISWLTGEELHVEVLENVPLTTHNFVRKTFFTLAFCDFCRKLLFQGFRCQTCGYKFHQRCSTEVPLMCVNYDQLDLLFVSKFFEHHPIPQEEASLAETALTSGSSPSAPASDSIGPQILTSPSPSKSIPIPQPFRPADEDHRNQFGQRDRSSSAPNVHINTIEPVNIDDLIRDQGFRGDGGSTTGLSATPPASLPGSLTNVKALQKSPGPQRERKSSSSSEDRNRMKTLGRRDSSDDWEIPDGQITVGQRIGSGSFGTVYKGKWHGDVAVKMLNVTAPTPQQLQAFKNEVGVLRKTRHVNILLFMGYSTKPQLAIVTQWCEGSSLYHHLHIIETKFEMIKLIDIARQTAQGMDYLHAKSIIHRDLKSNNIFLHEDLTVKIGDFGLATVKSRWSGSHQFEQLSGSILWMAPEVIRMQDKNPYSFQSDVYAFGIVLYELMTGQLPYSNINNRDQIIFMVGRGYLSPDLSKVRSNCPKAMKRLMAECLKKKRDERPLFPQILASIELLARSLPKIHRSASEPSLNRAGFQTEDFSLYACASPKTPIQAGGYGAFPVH
Sequence of Mast/stem cell growth factor receptor Kit (P10721 whole entry): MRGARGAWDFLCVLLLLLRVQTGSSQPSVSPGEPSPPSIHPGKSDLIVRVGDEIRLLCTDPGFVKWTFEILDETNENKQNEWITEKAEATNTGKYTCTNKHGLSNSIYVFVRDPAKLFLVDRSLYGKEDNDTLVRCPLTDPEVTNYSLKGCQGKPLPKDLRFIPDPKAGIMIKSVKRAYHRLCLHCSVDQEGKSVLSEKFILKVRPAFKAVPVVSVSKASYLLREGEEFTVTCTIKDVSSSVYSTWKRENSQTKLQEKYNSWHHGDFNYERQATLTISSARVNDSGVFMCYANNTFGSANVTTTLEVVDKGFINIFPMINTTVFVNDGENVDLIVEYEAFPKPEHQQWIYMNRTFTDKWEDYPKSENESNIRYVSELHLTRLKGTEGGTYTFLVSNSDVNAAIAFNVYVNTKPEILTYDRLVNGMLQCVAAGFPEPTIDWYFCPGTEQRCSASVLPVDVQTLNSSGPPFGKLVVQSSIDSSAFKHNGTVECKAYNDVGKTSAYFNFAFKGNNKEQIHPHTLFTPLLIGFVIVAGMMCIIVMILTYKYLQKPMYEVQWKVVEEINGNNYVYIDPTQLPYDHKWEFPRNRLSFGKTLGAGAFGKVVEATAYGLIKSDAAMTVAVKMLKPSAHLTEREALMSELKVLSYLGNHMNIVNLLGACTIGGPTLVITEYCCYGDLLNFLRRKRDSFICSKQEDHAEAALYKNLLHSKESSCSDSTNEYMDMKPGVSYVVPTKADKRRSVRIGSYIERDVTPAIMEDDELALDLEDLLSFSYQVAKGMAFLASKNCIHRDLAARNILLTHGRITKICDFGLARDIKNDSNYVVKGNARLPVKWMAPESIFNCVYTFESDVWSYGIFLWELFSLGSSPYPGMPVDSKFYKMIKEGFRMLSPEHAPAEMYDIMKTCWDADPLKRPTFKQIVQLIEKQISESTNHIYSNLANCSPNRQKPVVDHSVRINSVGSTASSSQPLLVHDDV
Description for B16-BL6: Cytotoxicity against mouse B16-BL6 cells after 48 hrs by MTT assay
Description for HCT-116: Cytotoxicity against human HCT116 cells after 48 hrs by MTT assay

For orientation: IC50 means the concentration that gives 50% inhibition. Turning to `CNC(=O)c1ccc(Sc2cccc(NC(=S)Nc3ccc(Br)c(C(F)(F)F)c3)c2)nc1`, the IC50 was 16500 nM in the assay with HCT-116, 133 nM in [1] and > 100000 nM in the assay with B16-BL6.

Consider `CNC(=O)c1ccc(Sc2ccc(NC(=S)Nc3ccc(Cl)cc3)cc2)nc1`, for which the IC50 was 1780 nM in [2]; 34500 nM with HCT-116; 8660 nM in [1]; 69300 nM in the assay on B16-BL6; 2060 nM in assay [3].

For the molecule `CNC(=O)c1ccc(Sc2cccc(NC(=S)Nc3ccc(F)c(F)c3)c2)nc1`, the IC50 in assay [2] amounted to 539 nM; with HCT-116, 35100 nM; in assay [1], 3860 nM; in the assay on B16-BL6, 58200 nM; in assay [3] it was 442 nM.

In the case of `CNC(=O)c1ccc(Sc2cccc(NC(=S)Nc3ccc(Cl)cc3)c2)nc1`, the IC50 in assay [2] was 857 nM; in the assay with HCT-116 it was 39500 nM; in [1] it was 5990 nM; in the assay with B16-BL6, 67500 nM; in assay [3], 791 nM.

Take `CNC(=O)c1cc(Oc2ccc(NC(=O)Nc3ccc(Cl)c(C(F)(F)F)c3)cc2)ccn1` [SORAFENIB]: in the assay on B16-BL6, half-maximal inhibition (IC50) was put at 36500 nM. Further, the Activity with HUVEC [4] amounted to 100%. In the assay on HUVEC [5] (Homo sapiens), the result was Active.

Consider `CNC(=O)c1ccc(Sc2ccc(NC(=O)Nc3ccc(Cl)c(C(F)(F)F)c3)cc2)nc1`, for which the IC50 was 29 nM in assay [2]; 5290 nM with HCT-116; 84 nM in assay [1]; 535 nM in assay [6]; > 1000 nM in assay [7]; 67 nM in assay [8]. Further, the IC50 in the assay with B16-BL6 was found to be 24600 nM; in [3], 21 nM. Also, the Activity in the assay with HUVEC [5] is reported as 100%.

In the case of `CNC(=O)c1ccc(Sc2ccc(NC(=O)Nc3ccc(F)c(C(F)(F)F)c3)cc2)nc1`, the IC50 was 65 nM in assay [2]; 5800 nM with HCT-116; 102 nM in assay [1]; 39600 nM with B16-BL6; 48 nM in [3].

Take `CNC(=O)c1ccc(Sc2ccc(NC(=S)Nc3ccc(OC(F)(F)F)cc3)cc2)nc1`: the IC50 in assay [2] was > 10000 nM; in the assay on HCT-116, > 100000 nM; in [1] it was > 10000 nM; with B16-BL6 it was > 100000 nM; in [3], 9870 nM.

With `CNC(=O)c1ccc(Sc2cccc(NC(=S)Nc3ccc(F)c(C(F)(F)F)c3)c2)nc1`, the 50% inhibitory concentration (IC50) came to 77 nM in assay [2]; 18200 nM with HCT-116; 61 nM in [1]; 42400 nM in the assay on B16-BL6; 69 nM in [3].

Turning to `CNC(=O)c1ccc(Sc2ccc(NC(=S)Nc3cccc(C(F)(F)F)c3)cc2)nc1`, the IC50 in [2] was 571 nM; with HCT-116 it was 25900 nM; in assay [1], > 10000 nM; in the assay with B16-BL6, 53100 nM; in [3], 503 nM.

As to `CNC(=O)c1ccc(Sc2ccc(NC(=S)Nc3ccc(Cl)c(C(F)(F)F)c3)cc2)nc1`, the IC50 in [2] was 28 nM; with HCT-116 it was 4900 nM; in [1], 46 nM; in assay [6], 701 nM; in [7], > 1000 nM; in assay [8] it was 949 nM. In addition, the IC50 worked out at 23500 nM in the assay with B16-BL6 and 27 nM in assay [3]. Besides, in the assay on HUVEC [5], the Activity turned out to be 100%.

For `CNC(=O)c1ccc(Sc2ccc(NC(=S)Nc3cc(C(F)(F)F)cc(C(F)(F)F)c3)cc2)nc1`, the IC50 in the assay with HCT-116 amounted to 16600 nM; in assay [1] it was 277 nM; in the assay on B16-BL6, 36100 nM.

For `CNC(=O)c1ccc(Sc2cccc(NC(=S)Nc3ccc(F)c(Cl)c3)c2)nc1`, the IC50 in assay [2] was 392 nM; in the assay on HCT-116 it was 17300 nM; in assay [1], 4020 nM; in the assay with B16-BL6, > 100000 nM; in assay [3], 280 nM.

For `CNC(=O)c1ccc(Sc2cccc(NC(=S)Nc3ccc(Cl)c(C(F)(F)F)c3)c2)nc1`, the IC50 in assay [2] was 16 nM; with HCT-116 it was 5180 nM; in assay [1], 63 nM; in assay [6] it was > 1000 nM; in [7], 596 nM; in assay [8], 781 nM. The IC50 in the assay on B16-BL6 came out at 19800 nM; in [3], 17 nM. Further, the Activity in the assay on HUVEC [5] amounted to 100%.

Turning to `CNC(=O)c1ccc(Sc2ccc(NC(=O)Nc3cc(C(F)(F)F)cc(C(F)(F)F)c3)cc2)nc1`, the IC50 in assay [2] stood at 196 nM; with HCT-116 it was 7090 nM; in assay [1], 508 nM; in the assay with B16-BL6, 45200 nM; in assay [3], 93 nM.

As to `CNC(=O)c1ccc(Sc2ccc(NC(=S)Nc3ccc(F)c(F)c3)cc2)nc1`, the IC50 in assay [2] is 892 nM; in the assay with HCT-116 it was 22200 nM; in [1], > 10000 nM; in the assay with B16-BL6, 52600 nM; in assay [3] it was 810 nM.

In the case of `CNC(=O)c1ccc(Sc2cccc(NC(=S)Nc3cc(C(F)(F)F)cc(C(F)(F)F)c3)c2)nc1`, the IC50 in assay [2] stood at 169 nM; in the assay with HCT-116 it was 5020 nM; in assay [1], 887 nM; in the assay with B16-BL6, 54200 nM; in assay [3], 158 nM.

Consider `CNC(=O)c1ccc(Sc2cccc(NC(=S)Nc3ccc(OC(F)(F)F)cc3)c2)nc1`, for which the IC50 is 7480 nM in assay [2]; 24500 nM in the assay on HCT-116; > 10000 nM in assay [1]; 91000 nM in the assay on B16-BL6; 5850 nM in [3].

As to `CNC(=O)c1ccc(Sc2ccc(NC(=S)Nc3ccc(F)c(C(F)(F)F)c3)cc2)nc1`, the IC50 in assay [2] turned out to be 45 nM; in the assay on HCT-116, 6370 nM; in [1], 74 nM; with B16-BL6 it was 29300 nM; in assay [3] it was 33 nM.

Consider `CNC(=O)c1ccc(Sc2cccc(NC(=S)Nc3cccc(C(F)(F)F)c3)c2)nc1`, for which the IC50 in assay [2] came to 1270 nM; with HCT-116 it was 16100 nM; in assay [1], 6910 nM; in the assay on B16-BL6, 19200 nM; in assay [3], 973 nM.
